Laboratory results reported in ChEMBL document CHEMBL1201862, “PubChem BioAssay data set” (2004).
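Five compound concentrations were applied to cells in 96-well plates for 48 hours; endpoints were derived by simple linear interpolation of the resulting dose-response curve. GI50: concentration for 50% inhibition of growth.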 Calls of active or inactive are those of the source. Rule as the data show it: active = GI50 up to about 1.1 µM and inactive = higher.

Assays:
Test in all cases: DTP human tumour cell line panel, 48 h
UACC-257 = test system: UACC-257
SK-MEL-2 = test system: SK-MEL-2
SNB-19 = test system: SNB-19
NCI-H23 = test system: NCI-H23
SR = test system: SR
NCI-H460 = test system: NCI-H460
OVCAR-5 = test system: OVCAR-5
HCT-15 = test system: HCT-15
Malme-3M = test system: Malme-3M
SNB-75 = test system: SNB-75
SF-539 = test system: SF-539
MOLT-4 = test system: MOLT-4
SF-268 = test system: SF-268
Hs-578T = test system: Hs-578T
UO-31 = test system: UO-31
U-251 = test system: U-251
TK-10 = test system: TK-10
SK-OV-3 = test system: SK-OV-3
OVCAR-4 = test system: OVCAR-4
SW-620 = test system: SW-620
HOP-62 = test system: HOP-62
SF-295 = test system: SF-295
RXF 393 = test system: RXF 393
EKVX = test system: EKVX
KM12 = test system: KM12
RPMI-8226 = test system: RPMI-8226
OVCAR-8 = test system: OVCAR-8
A549 = test system: A549
NCI-H522 = test system: NCI-H522
HT-29 = test system: HT-29
MCF7 = test system: MCF7
HCC 2998 = test system: HCC 2998
CAKI-1 = test system: CAKI-1
PC-3 = test system: PC-3
MDA-MB-231 = test system: MDA-MB-231
SK-MEL-28 = test system: SK-MEL-28
COLO 205 = test system: COLO 205
T47D = test system: T47D
NCI-H226 = test system: NCI-H226
MDA-N = test system: MDA-N
HCT-116 = test system: HCT-116
SK-MEL-5 = test system: SK-MEL-5
NCI/ADR-RES = test system: NCI/ADR-RES
SN12C = test system: SN12C
ACHN = test system: ACHN
MDA-MB-435 = test system: MDA-MB-435
IGROV-1 = test system: IGROV-1
OVCAR-3 = test system: OVCAR-3
K562 = test system: K562
BT-549 = test system: BT-549
M14 = test system: M14
CCRF-CEM = test system: CCRF-CEM
LOX IMVI = test system: LOX IMVI
786-0 = test system: 786-0
UACC-62 = test system: UACC-62
HOP-92 = test system: HOP-92
DU-145 = test system: DU-145
HL-60 = test system: HL-60
A498 = test system: A498

## CC1=NOC2(C1)/C(=N/O)CCC/C2=N\O (centres undefined)
UACC-257
  GI50: > 100 µM (inactive)
SK-MEL-2
  GI50: > 100 µM (inactive)
SNB-19
  GI50: > 100 µM (inactive)
NCI-H23
  GI50: > 100 µM (inactive)
SR
  GI50: > 100 µM (inactive)
NCI-H460
  GI50: > 100 µM (inactive)
OVCAR-5
  GI50: > 100 µM (inactive)
HCT-15
  GI50: > 100 µM
Malme-3M
  GI50: > 100 µM (inactive)
SNB-75
  GI50: > 100 µM (inactive)
SF-539
  GI50: > 100 µM (inactive)
MOLT-4
  GI50: > 100 µM (inactive)
SF-268
  GI50: > 100 µM (inactive)
Hs-578T
  GI50: > 100 µM (inactive)
UO-31
  GI50: > 100 µM (inactive)
U-251
  GI50: > 100 µM (inactive)
TK-10
  GI50: > 100 µM (inactive)
SK-OV-3
  GI50: > 100 µM (inactive)
OVCAR-4
  GI50: > 100 µM (inactive)
SW-620
  GI50: > 100 µM (inactive)
HOP-62
  GI50: > 100 µM (inactive)
SF-295
  GI50: > 100 µM (inactive)
RXF 393
  GI50: 3.39 µM (inactive)
EKVX
  GI50: > 100 µM (inactive)
KM12
  GI50: > 100 µM (inactive)
RPMI-8226
  GI50: > 100 µM (inactive)
OVCAR-8
  GI50: > 100 µM (inactive)
A549
  GI50: > 100 µM (inactive)
NCI-H522
  GI50: > 100 µM (inactive)
HT-29
  GI50: > 100 µM (inactive)
MCF7
  GI50: > 100 µM (inactive)
HCC 2998
  GI50: > 100 µM (inactive)
CAKI-1
  GI50: > 100 µM (inactive)
PC-3
  GI50: > 100 µM (inactive)
MDA-MB-231
  GI50: > 100 µM (inactive)
SK-MEL-28
  GI50: > 100 µM (inactive)
COLO 205
  GI50: > 100 µM (inactive)
T47D
  GI50: > 100 µM (inactive)
NCI-H226
  GI50: > 100 µM (inactive)
MDA-N
  GI50: > 100 µM (inactive)
HCT-116
  GI50: > 100 µM (inactive)
SK-MEL-5
  GI50: > 100 µM (inactive)
NCI/ADR-RES
  GI50: > 100 µM (inactive)
SN12C
  GI50: > 100 µM (inactive)
ACHN
  GI50: > 100 µM (inactive)
MDA-MB-435
  GI50: > 100 µM (inactive)
IGROV-1
  GI50: > 100 µM (inactive)
OVCAR-3
  GI50: > 100 µM (inactive)
K562
  GI50: > 100 µM (inactive)
BT-549
  GI50: > 100 µM (inactive)
M14
  GI50: > 100 µM (inactive)
CCRF-CEM
  GI50: > 100 µM (inactive)
LOX IMVI
  GI50: > 100 µM (inactive)
786-0
  GI50: > 100 µM (inactive)
UACC-62
  GI50: > 100 µM (inactive)

## CN(C(=O)c1cccs1)C(=S)N1CCN(c2ccccc2)CC1
UACC-257
  GI50: > 100 µM (inactive)
SK-MEL-2
  GI50: > 100 µM (inactive)
SNB-19
  GI50: > 100 µM (inactive)
NCI-H23
  GI50: > 100 µM (inactive)
SR
  GI50: 54.2 µM (inactive)
NCI-H460
  GI50: > 100 µM (inactive)
OVCAR-5
  GI50: > 100 µM (inactive)
HOP-92
  GI50: 91.8 µM (inactive)
HCT-15
  GI50: > 100 µM
Malme-3M
  GI50: > 100 µM (inactive)
SNB-75
  GI50: > 100 µM (inactive)
MOLT-4
  GI50: 51.8 µM (inactive)
SF-268
  GI50: > 100 µM (inactive)
Hs-578T
  GI50: 42.7 µM (inactive)
UO-31
  GI50: > 100 µM (inactive)
U-251
  GI50: > 100 µM (inactive)
TK-10
  GI50: > 100 µM (inactive)
OVCAR-4
  GI50: > 100 µM (inactive)
SW-620
  GI50: > 100 µM (inactive)
SF-295
  GI50: > 100 µM (inactive)
RXF 393
  GI50: > 100 µM (inactive)
DU-145
  GI50: > 100 µM (inactive)
KM12
  GI50: > 100 µM (inactive)
RPMI-8226
  GI50: 52.2 µM (inactive)
OVCAR-8
  GI50: > 100 µM (inactive)
A549
  GI50: > 100 µM (inactive)
NCI-H522
  GI50: > 100 µM (inactive)
HT-29
  GI50: > 100 µM (inactive)
MCF7
  GI50: > 100 µM (inactive)
HCC 2998
  GI50: > 100 µM (inactive)
MDA-MB-231
  GI50: > 100 µM (inactive)
SK-MEL-28
  GI50: > 100 µM (inactive)
COLO 205
  GI50: > 100 µM (inactive)
T47D
  GI50: > 100 µM (inactive)
NCI-H226
  GI50: > 100 µM (inactive)
MDA-N
  GI50: > 100 µM (inactive)
SK-MEL-5
  GI50: > 100 µM (inactive)
HL-60
  GI50: 68.5 µM (inactive)
SN12C
  GI50: > 100 µM (inactive)
ACHN
  GI50: > 100 µM (inactive)
MDA-MB-435
  GI50: > 100 µM (inactive)
IGROV-1
  GI50: > 100 µM (inactive)
OVCAR-3
  GI50: > 100 µM (inactive)
K562
  GI50: > 100 µM (inactive)
BT-549
  GI50: > 100 µM (inactive)
M14
  GI50: > 100 µM (inactive)
CCRF-CEM
  GI50: > 100 µM (inactive)
LOX IMVI
  GI50: > 100 µM (inactive)
786-0
  GI50: > 100 µM (inactive)
UACC-62
  GI50: > 100 µM (inactive)

## S=C(N/N=C(/c1ccccc1)c1ccccn1)N1CCCCCC1
A498
  GI50: 0.269 µM (active)
UACC-257
  GI50: < 0.015 µM (active)
SK-MEL-2
  GI50: 0.489 µM (active)
SNB-19
  GI50: 0.308 µM (active)
NCI-H23
  GI50: 0.0538 µM (active)
NCI-H460
  GI50: < 0.0283 µM (active)
OVCAR-5
  GI50: 0.0764 µM (active)
HOP-92
  GI50: 0.55 µM (active)
HCT-15
  GI50: < 0.0213 µM
Malme-3M
  GI50: < 0.0295 µM (active)
SNB-75
  GI50: 0.036 µM (active)
SF-539
  GI50: 0.198 µM (active)
MOLT-4
  GI50: < 0.0134 µM (active)
SF-268
  GI50: < 0.0391 µM (active)
Hs-578T
  GI50: 0.3 µM (active)
UO-31
  GI50: 0.0904 µM (active)
U-251
  GI50: < 0.0252 µM (active)
TK-10
  GI50: 0.112 µM (active)
SK-OV-3
  GI50: < 0.027 µM (active)
OVCAR-4
  GI50: 0.127 µM (active)
SW-620
  GI50: < 0.0214 µM (active)
HOP-62
  GI50: 0.0514 µM (active)
SF-295
  GI50: < 0.0374 µM (active)
RXF 393
  GI50: 0.67 µM (active)
DU-145
  GI50: 0.369 µM (active)
EKVX
  GI50: < 0.0329 µM (active)
KM12
  GI50: < 0.0306 µM (active)
OVCAR-8
  GI50: < 0.0256 µM (active)
A549
  GI50: < 0.0371 µM (active)
NCI-H522
  GI50: 0.0731 µM (active)
HT-29
  GI50: < 0.0141 µM (active)
MCF7
  GI50: 0.0569 µM (active)
HCC 2998
  GI50: 0.176 µM (active)
CAKI-1
  GI50: 0.0818 µM (active)
PC-3
  GI50: < 0.0198 µM (active)
MDA-MB-231
  GI50: 0.01 µM (active)
COLO 205
  GI50: < 0.018 µM (active)
T47D
  GI50: 0.0843 µM (active)
NCI-H226
  GI50: 0.0379 µM (active)
MDA-N
  GI50: < 0.044 µM (active)
HCT-116
  GI50: 0.01 µM (active)
SK-MEL-5
  GI50: < 0.0228 µM (active)
HL-60
  GI50: < 0.0103 µM (active)
NCI/ADR-RES
  GI50: < 0.0194 µM (active)
ACHN
  GI50: < 0.0421 µM (active)
MDA-MB-435
  GI50: 0.0843 µM (active)
IGROV-1
  GI50: < 0.0198 µM (active)
OVCAR-3
  GI50: 0.01 µM (active)
K562
  GI50: < 0.0115 µM (active)
BT-549
  GI50: 0.564 µM (active)
M14
  GI50: 0.001 µM (active)
CCRF-CEM
  GI50: < 0.0133 µM (active)
786-0
  GI50: < 0.0265 µM (active)
UACC-62
  GI50: 0.0476 µM (active)
